According to article PMC6120666 (The EMBO Journal, 2018):

What was measured:
Experiment in all cases: Drug affinity chromatography with c-ponatinib and LC-MS/MS (ponatinib interactome)
Type in all cases: binding
[1] = molecular target: T1, proteins of U2OS cell lysate (Homo sapiens, UniProt P62826); details: captured protein RAN, Rank 147
T1 construct: Proteins enriched by c-ponatinib from U2OS cell lysate; endogenous in cells; host or cells: U2OS cell lysate
Procedure, shortened: (§1)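 Proteins were identified by nano-UPLC–MS/MS after elution with formic acid and trypsin digestion. They were captured from U2OS lysate (2 mg protein per pulldown, NP-40 buffer) on amine-coupled NHS beads during a 2 h incubation at 4 °C.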

[2] = molecular target: T2, proteins of U2OS cell lysate (Homo sapiens, UniProt P45880); details: captured protein VDAC2, Rank 163
T2 construct: Proteins enriched by c-ponatinib from U2OS cell lysate; endogenous in cells; host or cells: U2OS cell lysate
Procedure, shortened: as §1

[3] = molecular target: T3, proteins of U2OS cell lysate (Homo sapiens, UniProt O00264); details: PGRMC1, Membrane-associated progesterone receptor component 1
T3 construct: Proteins enriched by c-ponatinib from U2OS cell lysate; endogenous in cells; host or cells: U2OS cell lysate
T3 sequence (O00264 whole entry): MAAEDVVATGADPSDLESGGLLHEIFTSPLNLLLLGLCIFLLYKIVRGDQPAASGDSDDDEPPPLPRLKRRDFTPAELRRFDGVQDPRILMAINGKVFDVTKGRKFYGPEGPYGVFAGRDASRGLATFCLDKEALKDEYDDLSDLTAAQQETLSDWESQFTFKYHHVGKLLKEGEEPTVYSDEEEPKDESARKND
Procedure, shortened: as §1

[4] = molecular target: T4, proteins of U2OS cell lysate (Homo sapiens, UniProt Q09666); details: AHNAK, Neuroblast differentiation-associated protein AHNAK
T4 construct: Proteins enriched by c-ponatinib from U2OS cell lysate; endogenous in cells; host or cells: U2OS cell lysate
Procedure, shortened: as §1

[5] = molecular target: T5, proteins of U2OS cell lysate (Homo sapiens, UniProt Q9UHD8); details: SEPT9, Septin-9
T5 construct: Proteins enriched by c-ponatinib from U2OS cell lysate; endogenous in cells; host or cells: U2OS cell lysate
T5 sequence (Q9UHD8 whole entry): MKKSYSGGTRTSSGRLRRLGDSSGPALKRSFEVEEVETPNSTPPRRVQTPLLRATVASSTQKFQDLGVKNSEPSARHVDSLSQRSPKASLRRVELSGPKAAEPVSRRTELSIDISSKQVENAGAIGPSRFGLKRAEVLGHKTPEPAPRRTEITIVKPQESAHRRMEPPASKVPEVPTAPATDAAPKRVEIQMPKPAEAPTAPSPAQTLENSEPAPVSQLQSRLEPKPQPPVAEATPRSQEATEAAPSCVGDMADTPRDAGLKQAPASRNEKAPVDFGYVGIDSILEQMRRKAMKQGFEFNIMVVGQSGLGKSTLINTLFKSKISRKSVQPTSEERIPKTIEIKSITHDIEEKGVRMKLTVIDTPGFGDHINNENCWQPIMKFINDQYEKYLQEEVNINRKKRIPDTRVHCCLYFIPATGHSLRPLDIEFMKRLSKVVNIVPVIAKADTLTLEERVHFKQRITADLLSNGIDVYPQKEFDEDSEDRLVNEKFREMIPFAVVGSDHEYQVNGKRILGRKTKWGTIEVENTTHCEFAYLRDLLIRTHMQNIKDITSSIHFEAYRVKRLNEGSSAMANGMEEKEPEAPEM
Procedure, shortened: as §1

[6] = molecular target: T6, proteins of U2OS cell lysate (Homo sapiens, UniProt Q6PHR2); details: ULK3, Serine/threonine-protein kinase ULK3
T6 construct: Proteins enriched by c-ponatinib from U2OS cell lysate; endogenous in cells; host or cells: U2OS cell lysate
T6 sequence (Q6PHR2 whole entry): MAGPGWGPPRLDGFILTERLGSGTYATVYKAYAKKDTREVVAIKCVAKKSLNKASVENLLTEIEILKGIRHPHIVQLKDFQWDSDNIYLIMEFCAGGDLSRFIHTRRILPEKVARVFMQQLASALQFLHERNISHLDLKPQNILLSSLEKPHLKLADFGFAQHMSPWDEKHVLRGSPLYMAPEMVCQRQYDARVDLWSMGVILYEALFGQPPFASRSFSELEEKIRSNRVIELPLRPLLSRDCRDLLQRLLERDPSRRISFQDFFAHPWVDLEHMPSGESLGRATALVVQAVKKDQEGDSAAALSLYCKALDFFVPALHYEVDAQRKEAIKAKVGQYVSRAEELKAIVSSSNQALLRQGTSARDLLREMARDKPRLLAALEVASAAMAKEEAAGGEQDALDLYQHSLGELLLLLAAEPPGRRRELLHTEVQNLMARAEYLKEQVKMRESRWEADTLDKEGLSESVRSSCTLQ
Procedure, shortened: as §1

[7] = molecular target: T7, proteins of U2OS cell lysate (Homo sapiens, UniProt P22234); details: PAICS, Multifunctional protein ADE2
T7 construct: Proteins enriched by c-ponatinib from U2OS cell lysate; endogenous in cells; host or cells: U2OS cell lysate
Procedure, shortened: as §1

[8] = molecular target: T8, proteins of U2OS cell lysate (Homo sapiens, UniProt Q7L014); details: DDX46, Probable ATP-dependent RNA helicase DDX46
T8 construct: Proteins enriched by c-ponatinib from U2OS cell lysate; endogenous in cells; host or cells: U2OS cell lysate
T8 sequence (Q7L014 whole entry): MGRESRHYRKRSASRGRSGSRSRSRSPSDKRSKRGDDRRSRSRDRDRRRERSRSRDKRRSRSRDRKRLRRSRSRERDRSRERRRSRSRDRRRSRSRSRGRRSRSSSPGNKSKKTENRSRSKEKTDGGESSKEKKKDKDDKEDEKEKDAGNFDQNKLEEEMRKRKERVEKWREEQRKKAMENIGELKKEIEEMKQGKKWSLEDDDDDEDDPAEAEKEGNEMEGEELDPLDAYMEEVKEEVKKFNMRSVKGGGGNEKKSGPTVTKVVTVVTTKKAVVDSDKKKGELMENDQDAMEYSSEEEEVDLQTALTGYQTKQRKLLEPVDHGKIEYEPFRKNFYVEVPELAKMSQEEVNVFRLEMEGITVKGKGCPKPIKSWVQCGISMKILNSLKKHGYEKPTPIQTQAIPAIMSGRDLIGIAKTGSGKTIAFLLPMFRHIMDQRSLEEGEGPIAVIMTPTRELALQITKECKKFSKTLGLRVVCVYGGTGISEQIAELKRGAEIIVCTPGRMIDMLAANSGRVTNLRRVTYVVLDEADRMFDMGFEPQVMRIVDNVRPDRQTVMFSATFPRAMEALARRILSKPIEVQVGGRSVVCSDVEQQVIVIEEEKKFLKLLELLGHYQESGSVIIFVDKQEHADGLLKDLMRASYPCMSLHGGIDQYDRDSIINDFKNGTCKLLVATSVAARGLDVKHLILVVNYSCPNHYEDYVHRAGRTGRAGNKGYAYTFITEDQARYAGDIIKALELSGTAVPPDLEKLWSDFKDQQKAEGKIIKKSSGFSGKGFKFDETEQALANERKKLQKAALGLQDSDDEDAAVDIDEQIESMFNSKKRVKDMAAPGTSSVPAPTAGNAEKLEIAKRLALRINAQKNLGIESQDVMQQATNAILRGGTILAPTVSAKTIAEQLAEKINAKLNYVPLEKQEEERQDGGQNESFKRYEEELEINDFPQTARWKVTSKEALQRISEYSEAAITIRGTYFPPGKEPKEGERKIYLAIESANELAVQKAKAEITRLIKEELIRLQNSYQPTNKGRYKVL
Procedure, shortened: as §1

[9] = molecular target: T9, proteins of U2OS cell lysate (Homo sapiens, UniProt Q9BSJ8); details: ESYT1, Extended synaptotagmin-1
T9 construct: Proteins enriched by c-ponatinib from U2OS cell lysate; endogenous in cells; host or cells: U2OS cell lysate
Procedure, shortened: as §1

[10] = molecular target: T10, proteins of U2OS cell lysate (Homo sapiens, UniProt P16615); details: ATP2A2, Sarcoplasmic/endoplasmic reticulum calcium ATPase 2
T10 construct: Proteins enriched by c-ponatinib from U2OS cell lysate; endogenous in cells; host or cells: U2OS cell lysate
Procedure, shortened: as §1

[11] = molecular target: T11, proteins of U2OS cell lysate (Homo sapiens, UniProt P11142); details: HSPA8, Heat shock cognate 71 kDa protein
T11 construct: Proteins enriched by c-ponatinib from U2OS cell lysate; endogenous in cells; host or cells: U2OS cell lysate
T11 sequence (P11142 whole entry): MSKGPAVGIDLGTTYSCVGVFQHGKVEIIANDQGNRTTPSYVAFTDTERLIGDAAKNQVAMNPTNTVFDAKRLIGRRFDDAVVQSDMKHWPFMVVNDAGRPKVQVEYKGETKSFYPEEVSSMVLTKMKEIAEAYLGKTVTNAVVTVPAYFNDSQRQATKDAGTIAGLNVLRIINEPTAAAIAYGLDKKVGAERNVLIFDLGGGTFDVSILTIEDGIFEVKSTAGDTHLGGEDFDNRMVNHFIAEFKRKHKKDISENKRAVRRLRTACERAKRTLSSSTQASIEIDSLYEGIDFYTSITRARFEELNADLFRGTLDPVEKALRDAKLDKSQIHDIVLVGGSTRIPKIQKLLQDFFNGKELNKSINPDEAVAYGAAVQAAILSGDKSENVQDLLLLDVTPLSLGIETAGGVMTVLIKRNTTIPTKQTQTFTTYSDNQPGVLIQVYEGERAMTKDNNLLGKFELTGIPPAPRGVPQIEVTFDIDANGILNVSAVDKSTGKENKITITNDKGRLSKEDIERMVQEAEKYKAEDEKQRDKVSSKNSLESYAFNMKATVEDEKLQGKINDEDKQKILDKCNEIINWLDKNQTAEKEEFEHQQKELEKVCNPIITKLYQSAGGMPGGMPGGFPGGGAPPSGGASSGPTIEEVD
Procedure, shortened: as §1

[12] = molecular target: T12, proteins of U2OS cell lysate (Homo sapiens, UniProt O00303); details: EIF3F, Eukaryotic translation initiation factor 3 subunit F
T12 construct: Proteins enriched by c-ponatinib from U2OS cell lysate; endogenous in cells; host or cells: U2OS cell lysate
T12 sequence (O00303 whole entry): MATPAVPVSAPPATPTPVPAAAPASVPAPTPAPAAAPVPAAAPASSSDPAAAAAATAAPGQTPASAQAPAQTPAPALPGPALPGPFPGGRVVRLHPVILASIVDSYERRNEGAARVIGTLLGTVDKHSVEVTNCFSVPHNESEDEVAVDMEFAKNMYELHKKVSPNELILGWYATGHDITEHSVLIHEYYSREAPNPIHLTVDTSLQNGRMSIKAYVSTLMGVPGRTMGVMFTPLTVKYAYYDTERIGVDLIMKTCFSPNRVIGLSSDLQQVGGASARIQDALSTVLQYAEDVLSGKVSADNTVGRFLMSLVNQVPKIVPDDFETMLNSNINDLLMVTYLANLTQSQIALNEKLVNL
Procedure, shortened: as §1

[13] = molecular target: T13, proteins of U2OS cell lysate (Homo sapiens, UniProt P35606); details: COPB2, Coatomer subunit beta
T13 construct: Proteins enriched by c-ponatinib from U2OS cell lysate; endogenous in cells; host or cells: U2OS cell lysate
T13 sequence (P35606 whole entry): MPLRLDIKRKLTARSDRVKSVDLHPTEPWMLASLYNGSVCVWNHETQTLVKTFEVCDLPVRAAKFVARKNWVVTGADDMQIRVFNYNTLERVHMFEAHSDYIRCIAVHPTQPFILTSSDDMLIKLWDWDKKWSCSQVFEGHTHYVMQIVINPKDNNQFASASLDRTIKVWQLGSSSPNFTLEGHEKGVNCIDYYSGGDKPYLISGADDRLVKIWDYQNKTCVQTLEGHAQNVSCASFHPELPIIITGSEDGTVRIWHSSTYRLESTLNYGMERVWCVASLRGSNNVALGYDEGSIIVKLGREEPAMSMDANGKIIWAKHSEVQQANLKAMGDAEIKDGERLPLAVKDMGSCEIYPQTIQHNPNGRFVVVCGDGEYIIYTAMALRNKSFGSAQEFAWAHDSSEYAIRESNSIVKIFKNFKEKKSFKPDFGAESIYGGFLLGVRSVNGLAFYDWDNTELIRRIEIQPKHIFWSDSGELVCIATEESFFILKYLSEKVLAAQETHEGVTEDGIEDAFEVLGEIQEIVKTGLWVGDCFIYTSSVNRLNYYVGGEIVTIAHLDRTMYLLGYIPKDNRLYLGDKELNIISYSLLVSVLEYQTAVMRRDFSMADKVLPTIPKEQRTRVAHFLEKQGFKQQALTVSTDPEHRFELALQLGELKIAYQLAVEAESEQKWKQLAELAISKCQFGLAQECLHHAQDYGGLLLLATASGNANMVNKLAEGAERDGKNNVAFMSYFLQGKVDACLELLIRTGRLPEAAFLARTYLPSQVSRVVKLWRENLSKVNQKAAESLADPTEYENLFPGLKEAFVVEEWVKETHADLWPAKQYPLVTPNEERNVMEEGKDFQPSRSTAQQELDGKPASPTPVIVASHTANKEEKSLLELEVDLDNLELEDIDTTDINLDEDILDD
Procedure, shortened: as §1

[14] = molecular target: T14, proteins of U2OS cell lysate (Homo sapiens, UniProt P40939); details: HADHA, Trifunctional enzyme subunit alpha, mitochondrial
T14 construct: Proteins enriched by c-ponatinib from U2OS cell lysate; endogenous in cells; host or cells: U2OS cell lysate
Procedure, shortened: as §1

[15] = molecular target: T15, proteins of U2OS cell lysate (Homo sapiens, UniProt P49336); details: CDK8, Cyclin-dependent kinase 8
T15 construct: Proteins enriched by c-ponatinib from U2OS cell lysate; endogenous in cells; host or cells: U2OS cell lysate
T15 sequence (P49336 whole entry): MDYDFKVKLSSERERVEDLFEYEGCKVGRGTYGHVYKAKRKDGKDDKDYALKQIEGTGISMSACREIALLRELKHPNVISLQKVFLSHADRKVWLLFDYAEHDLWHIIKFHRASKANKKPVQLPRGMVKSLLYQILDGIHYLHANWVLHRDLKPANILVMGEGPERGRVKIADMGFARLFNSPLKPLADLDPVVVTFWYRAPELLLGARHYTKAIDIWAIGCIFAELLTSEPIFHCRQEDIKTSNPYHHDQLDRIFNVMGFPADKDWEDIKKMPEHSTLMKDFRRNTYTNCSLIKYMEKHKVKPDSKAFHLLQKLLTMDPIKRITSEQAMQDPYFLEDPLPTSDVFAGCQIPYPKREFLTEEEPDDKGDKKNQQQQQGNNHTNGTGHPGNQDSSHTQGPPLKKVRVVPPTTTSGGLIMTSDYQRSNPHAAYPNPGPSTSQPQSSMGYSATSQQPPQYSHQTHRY
Procedure, shortened: as §1

[16] = molecular target: T16, proteins of U2OS cell lysate (Homo sapiens, UniProt P09496); details: CLTA, Clathrin light chain A
T16 construct: Proteins enriched by c-ponatinib from U2OS cell lysate; endogenous in cells; host or cells: U2OS cell lysate
Procedure, shortened: as §1

[17] = molecular target: T17, proteins of U2OS cell lysate (Homo sapiens, UniProt P05388); details: RPLP0;RPLP0P6, 60S acidic ribosomal protein P0
T17 construct: Proteins enriched by c-ponatinib from U2OS cell lysate; endogenous in cells; host or cells: U2OS cell lysate
Procedure, shortened: as §1

[18] = molecular target: T18, proteins of U2OS cell lysate (Homo sapiens, UniProt P06576); details: ATP5B, ATP synthase subunit beta, mitochondrial
T18 construct: Proteins enriched by c-ponatinib from U2OS cell lysate; endogenous in cells; host or cells: U2OS cell lysate
Procedure, shortened: as §1

[19] = molecular target: T19, proteins of U2OS cell lysate (Homo sapiens, UniProt O14818); details: PSMA7;PSMA8, Proteasome subunit alpha type-7
T19 construct: Proteins enriched by c-ponatinib from U2OS cell lysate; endogenous in cells; host or cells: U2OS cell lysate
T19 sequence (O14818 whole entry): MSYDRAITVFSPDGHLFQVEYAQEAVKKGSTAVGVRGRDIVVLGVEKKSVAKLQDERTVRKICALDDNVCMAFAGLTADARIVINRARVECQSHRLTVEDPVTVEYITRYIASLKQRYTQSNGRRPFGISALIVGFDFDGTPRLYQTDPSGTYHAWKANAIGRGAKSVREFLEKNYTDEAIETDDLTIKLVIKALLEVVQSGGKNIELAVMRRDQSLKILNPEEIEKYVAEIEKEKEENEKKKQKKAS
Procedure, shortened: as §1

Structure (SMILES) | Average LFQ intensity [1] | Average LFQ intensity [2] | Average LFQ PON_WT [3] | Average LFQ PON_WT [4] | Average LFQ PON_WT [5] | Average LFQ PON_WT [6] | Average LFQ PON_WT [7] | Average LFQ PON_WT [8] | Average LFQ PON_WT [9] | Average LFQ PON_WT [10] | Average LFQ PON_WT [11] | Average LFQ PON_WT [12] | Average LFQ PON_WT [13] | Average LFQ PON_WT [14] | Average LFQ PON_WT [15] | Average LFQ PON_WT [16] | Average LFQ PON_WT [17] | Average LFQ PON_WT [18] | Average LFQ PON_WT [19]
Cc1ccc(C(=O)Nc2ccc(CN3CCN(CCCN)CC3)c(C(F)(F)F)c2)cc1C#Cc1cnc2cccnn12 [c-ponatinib, reference compound] | 22.7198 | 22.3592 | – | – | – | – | – | – | – | – | – | – | – | – | – | – | – | – | –
Cc1ccc(C(=O)Nc2ccc(CN3CCN(C)CC3)c(C(F)(F)F)c2)cc1C#Cc1cnc2cccnn12 [PON] | – | – | 23.2724 | 26.25 | 23.3795 | 24.6179 | 21.2772 | 21.404 | 18.8901 | 20.9825 | 27.1657 | 23.4858 | 21.0921 | 23.258 | 23.7078 | 24.9334 | 20.5709 | 26.0565 | 22.0977
